Results published in PMC4595804, “A strategy to discover decoy chemokine ligands with an anti-inflammatory activity” (Scientific Reports, 2015).
Like-named read-outs stand apart in the source and are kept apart here.

How the values were obtained:
[1] = tested on: Balb/c mice sensitized and challenged with OVA; test: Mouse model of allergic eosinophilic airway inflammation (OVA), BAL cell counts; format: in vivo; settings: vs vehicle-treated OVA mice; for overall number of inflammatory cells in BALF: 350 μmol/kg I.P. 2 h before each challenge; for CD4+ T cells in BALF / CD11c+F4/80− dendritic cells in BALF / T cells in BALF / neutrophil counts in BALF / number of CD11c+F4/80+ macrophages in BALF / recruited eosinophils in BALF: 350 μmol/kg I.P.
Method: The differential number of cells recovered in BAL fluid 24 h after the last challenge was counted by flow cytometry. Live leukocytes were identified as CD45^+DAPI^− cells then differentiated into T cells (CD11b^lowCD19^−CD3^+), CD4^+T cells (CD11b^lowCD19^−CD3^+CD4^+), eosinophils (CD11b^+CD11c^−GR1^−), neutrophils (CD11b^+CD11c^−GR1^+), macrophages (CD11b^+GR1^−CD11c^+F4/80^+), dendritic cells (CD11b^+GR1^−CD11c^+F4/80^−).
Nine week-old male Balb/c mice (Janvier) were sensitized on days 1 and 7 by intraperitoneal injection of ovalbumin (OVA, 50μg, grade V, Sigma-Aldrich) adsorbed on aluminium hydroxide (2 mg, Sigma-Aldrich) in PBS. Mice were challenged intranasally with OVA (10 μg) in 25μl of saline on days 18–21. Control mice received intranasal administrations of saline alone. […] Animal experimentation was approved by the local ethics committee (Comité Régional d’Ethique en Matière d’Expérimentation Animale de Strasbourg CREMEAS) and carried out in accordance with the approved guidelines. Collection of the bronchoalveolar lavage fluid (BALF) was performed 24 h after the last OVA challenge as described previously. Cell counts were assessed by flow cytometry (LSRII® cytometer, BD bioscience). BAL cells were added with FCblock (5 μl, 553142, BD bioscience) in a black microplate, incubated for 20 min at room temperature. Then, marker antibodies were added: CD11c-FITC (557400, BD bioscience), Gr-1-Pe-eFluor610 (61-5931-82, eBioscience), CD11b-APC-Cy7 (557657, BD bioscience), CD45-AlexaFluor700 (103128, BioLegend), CD3-BV605 (564009, BD bioscience), CD4-PerCP-Cy5.5 (45-0042-82, eBioscience), F4/80-PE (12-4801-82, eBioscience). Antibodies were incubated for 30 min before DAPI (5 μl, BD bioscience) addition, and flow cytometry was performed immediately.

[2] = biological target: T1, CCL22 R80N (Homo sapiens, UniProt O00626, R80N); test: Calcium responses induced by chemokine mutant, neutraligand protocol; format: cell-based; settings: 10 μM compound, 5 nM chemokine; remaining response
T1 construct: codes for the mature CCL17 or CCL22 with an N-terminal thioredoxin-hexahistidin (TRX- (His)6) tag; TRX-(His)6 (N, cleaved yes); made in house; host or cells: E. coli BL21 (DE3)
Method: (§1) Dye loaded cells were placed in the FlexStation 3 (Molecular Devices). Calcium mobilization was measured at 401 and 475 nm emission fluorescence after excitation at 355 nm. For the primary screening, the ligands (50μl of chemokine mixed with DMSO or test compounds) were added to the cells at 40 s, followed by digitonin addition (50μl) at 100 s to the cells. Molecules were screened at a final concentration of 2μg/ml with 5 nM CCL17 or CCL22. […] Raw fluorescence data (at 401 and 475 nm) were exported and the ratio 401/475 was calculated. The calcium response values (height of peak response over baseline) were determined. Hits were selected by comparing the response amplitude at the time of the chemokine addition ± test compound. The Z’ factor[29] was calculated according to the following equation: Z’ = 1-(3SD+ + 3SD−)/|Ave+ − Ave−|, where SD+ and Ave+ are respectively the standard deviation and the mean value of the positive controls (chemokine + DMSO), while SD− and Ave− are respectively the standard deviation and the mean value of the negative controls (HEPES-BSA (0.1%) mixed with DMSO, or cells mixed with C-021). Hit molecules were confirmed by performing concentration-response curves and their half maximal inhibitory concentration (IC50) values were calculated using the Kaleidagraph software.
(§2) and the denaturated chemokines (disulfite bonds reduced by β-mercaptoethanol). The
(§3) chemokine activity was then, tested in the in vitro assays. […]

[3] = biological target: T2, CCL22 W55A (Homo sapiens, UniProt O00626, W55A); test: as above; format: cell-based; settings: 10 μM compound, 5 nM chemokine; remaining response
T2 construct: codes for the mature CCL17 or CCL22 with an N-terminal thioredoxin-hexahistidin (TRX- (His)6) tag; TRX-(His)6 (N, cleaved yes); made in house; host or cells: E. coli BL21 (DE3)
Method: as §1, §2, §3

[4] = biological target: T3, CCL22 D58A (Homo sapiens, UniProt O00626, D58A); test: as above; format: cell-based; settings: 10 μM compound, 5 nM chemokine; remaining response
T3 construct: codes for the mature CCL17 or CCL22 with an N-terminal thioredoxin-hexahistidin (TRX- (His)6) tag; TRX-(His)6 (N, cleaved yes); made in house; host or cells: E. coli BL21 (DE3)
Method: as §1, §2, §3

[5] = Solubility measurements (RP-HPLC); format: physicochemical; settings: kinetic from dmso stock, dissolved at 10 µM, room temperature
Method: Standard stock solutions of compounds (10mM) were prepared in DMSO, and the molecules were dissolved at a concentration of 10µM in each of the three buffers. The samples were shaken for 1h at room temperature, and centrifuged at 15,000×g . The compounds concentration in the supernatant solutions was determined using RP-HPLC (Gilson) technique. The measurements were done with a UV detector set at 230nm. The measurements were carried out at room temperature using a C18 column ([…], 50×4.6mm, Phenomenex). The aqueous mobile phase contained 0.05% trifluoroacetic acid (solvent A, Sigma-Aldrich). The organic phase was HPLC grade acetonitrile (Sigma-Aldrich CHROMASOLV) (solvent B). The mobile phase flow rate was 2ml/min, and the following program was applied for the elution: 0–0.1min, 5% B; 0.1–2.6min, 5–95% B; 2.6–3.1min, 95% B; 3.1–3.3min, 95–5% B; and 3.3–6min, 5% B. To establish external calibration curves, increasing concentrations of each compound were prepared from standard stock solutions.
The chromatograms were recorded by injecting 20µl of each standard solution, and the calibration curves were plotted using peak areas. […]

[6] = biological target: T4, CCL22 T56A (Homo sapiens, UniProt O00626, T56A); test: Calcium responses induced by chemokine mutant, neutraligand protocol; format: cell-based; settings: 10 μM compound, 5 nM chemokine; remaining response
T4 construct: codes for the mature CCL17 or CCL22 with an N-terminal thioredoxin-hexahistidin (TRX- (His)6) tag; TRX-(His)6 (N, cleaved yes); made in house; host or cells: E. coli BL21 (DE3)

[7] = HEPES buffer, aqueous buffer, read-out: solubility in HEPES buffer
[8] = complete cell culture medium, plasma or biological fluid, read-out: solubility in the cell culture medium

T4 sequence (O00626 25-93 T56A): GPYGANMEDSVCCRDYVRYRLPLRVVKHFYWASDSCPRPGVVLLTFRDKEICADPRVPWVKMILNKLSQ
T1 sequence (O00626 25-93 R80N): as the sequence (O00626 25-93 T56A) above, with A32T, R56N counted along it
T3 sequence (O00626 25-93 D58A): as the sequence (O00626 25-93 T56A) above, with A32T, D34A counted along it
T2 sequence (O00626 25-93 W55A): as the sequence (O00626 25-93 T56A) above, with W31A, A32T counted along it

SMILES	overall number of inflammatory cells in BALF [1]	CD4+ T cells in BALF [1]	CD11c+F4/80− dendritic cells in BALF [1]	T cells in BALF [1]	neutrophil counts in BALF [1]	number of CD11c+F4/80+ macrophages in BALF [1]	recruited eosinophils in BALF [1]	calcium response induced by CCL22 R80N preincubated with compound [2]	calcium response induced by CCL22 W55A preincubated with compound [3]	calcium response induced by CCL22 D58A preincubated with compound [4]	solubility at 1 h [5, 7] [µM]	solubility at 1 h [5, 8] [µM]	calcium response induced by CCL22 T56A preincubated with compound [6]
O=C(OCC(O)CO)c1ccccc1O (centres unmarked) [GPN136, 2,3-dihydroxypropyl 2-hydroxybenzoate]	significantly reduced	significantly reduced	significantly reduced	significantly reduced	did not	not modified	significantly reduced	100.0 ± 3.0%	46.0 ± 3.0%	76.0 ± 3.0%	> 10	> 10	40.0 ± 6.0%
CC(C)=CCn1cnc2c1c(=O)n(C)c(=O)n2C [GPN279, 1,3-dimethyl-7-(3-methylbut-2-enyl)-1H-purine-2,6(3H, 7H)-dione]	significantly reduced	significantly reduced	significantly reduced	significantly reduced	significantly inhibited	not modified	significantly reduced	neither inhibited WT nor CCL22 mutants	neither inhibited WT nor CCL22 mutants	neither inhibited WT nor CCL22 mutants	> 10	> 10	neither inhibited WT nor CCL22 mutants
